Measured values from patent US20230390214A1, “ADHESIVE PATCH” (TOYO INK SC HOLDINGS CO., LTD., priority 2020, published 2023).

Assay: Solubility of the drug in levulinic acid at 35° C. (visual observation)
Assay type: physicochemical
Details: in 1 mL of levulinic acid at a liquid temperature of 35° C.
Experimental: The adhesive layer includes a drug. A drug that can be dissolved in levulinic acid is preferable. For example, it is preferable that 0.1 g or more of the drug can be dissolved in 1 mL of levulinic acid at a liquid temperature of 35° C.
Specifically, the solubility of the drug is determined as follows. One mL of levulinic acid is put into a test tube and kept at 35° C. to obtain liquid levulinic acid. To the liquid levulinic acid, 0.1 g of the drug is added to obtain a mixed liquid. While keeping the mixed liquid at 35° C., the mixed liquid in the test tube is vibrated for 10 minutes using an ultrasonic cleaner (e.g., a glasses cleaner). After removing the test tube from the ultrasonic cleaner and leaving it in an environment of 35° C. for 4 hours, the mixed liquid in the test tube is visually observed to check for the presence of residues or precipitates of the drug. In a case where no drug residues or precipitates are observed in the mixed liquid, it is determined that 0.1 g or more of the drug can be dissolved in 1 mL of levulinic acid at a liquid temperature of 35° C. Furthermore, in a case where drug residues or precipitates are observed in the mixed liquid, it is determined that 0.1 g or more of the drug cannot be dissolved in 1 mL of levulinic acid at a liquid temperature of 35° C.

Row | Amount of drug that can be dissolved in 1 mL of levulinic acid | Structure (SMILES)
1 | ≥ 0.1 g | CCN1CCN(c2cc(-c3ccc(F)cc3)c3c(n2)CCCCCC3)CC1 [blonanserin]
2 | ≥ 0.1 g | N=C(N)NC(=O)Cc1c(Cl)cccc1Cl [guanfacine]
3 | ≥ 0.1 g | CCCN(CCc1cccs1)[C@H]1CCc2c(O)cccc2C1 [rotigotine]
